Results published in patent publication US6015838A, “Aqueous film-forming foam compositions” (3M Innovative Properties Company, priority 1996, dated 2000).

Legend:
[1] = Thermogravimetric analysis of neat perfluorocarboxylate salts; assay type: physicochemical; details: neat salt; for onset temperature of decomposition / temperature for 50% loss / temperature for 90% loss: 10° C./min, nitrogen
Text: Thermal degradation measurements were made on a series of neat perfluorocarboxylate salts, including several ax-branched open chain structures (Examples N2-N9), a primarily linear open chain structure (Example N10--Fluorad™ FC-143 Fluorochemical Surfactant, commercially available from 3M Company, St. Paul, Minn.), and a closed chain (i.e., cyclic) structure (Example N11--made by the electrochemical fluorination of benzoic acid and hydrolysis in the presence of KOH, as described in U.S. Pat. No. 2,567,011 (Diesslin et al.)).
The perfluorocarboxylate salts were tested using a Perkin-Elmer TGA 7 thermogravimetric analysis apparatus and a salt sample size of approximately 5 mg, a heating rate of 10° C./min, and a nitrogen gas flow rate of 40-45 mL/min. Using the TGA 7 software, the following temperatures were recorded: (1) the onset temperature of decomposition, (2) the temperature at which 50% of the sample weight was lost, and (3) the temperature at which 90% of the sample weight was lost.

[2] = Storage of 5% aqueous solution at room temperature; assay type: physicochemical
Procedure: The α-branched open chain ammonium salt compounds from Examples N3-N6 were dissolved in deionized water at a concentration of 5% by weight (0.5 g ammonium salt in 10 mL water) and were stored at room temperature.

[3] = Surface tension and critical micelle concentration (CMC) of aqueous surfactant solutions; assay type: physicochemical; details: Table 5; deionized water, at CMC
Text: Critical Micelle Concentration (CMC): The critical micelle concentration is defined as the concentration at which further surface tension is no longer lowered with increasing levels of surfactant. […] Surface tension is then plotted vs. log concentration and the data points are connected. The resulting curve has a nearly horizontal flat portion at concentrations above the CMC and has a negative steep slope at concentrations below the CMC. The CMC is defined as the lowest surfactant concentration in the horizontal flat portion of the curve.
(§1) Then the critical micelle concentration (CMC) was determined for each surfactant.
as §1

rats = assay: Acute LD50, one-time feeding study of rats; assay type: in vivo, rat
Procedure: Acute LD50 measurements for a one-time feeding study of rats were determined over a 21 day period for both the a-branched perfluorocarboxylate salt, C7 F15 CF(CF3)COO^- NH4^+, and its straight chain isomer, CF3 (CF2)8 COO^- NH4^+.

[4] = literature; cited from earlier work
[5] = Thermal degradation in aqueous media; assay type: physicochemical
Procedure: The thermal degradation of an aqueous a-branched perfluoroalkylcarbonyl fluoride and the characterization of the products produced from the degradation were carried out using the following procedure. 8 g of C7 F15 CF(CF3)COF (made as in Example A4) was dispersed in deionized water and was refluxed for 2 hours. 5.7 g of volatile degradation products were then collected by azeotropic distillation using a Dean-Stark apparatus.
The thermal degradation of C7 F15 CF(CF3)COF (from Example A4) dispersed in water was also carried out by heating the aqueous mixture for several hours at approximately 80° C.

[6] = Stability of esters to concentrated aqueous ammonium hydroxide; assay type: physicochemical; details: stirred 2 days (comparable conditions)
Text: The acrylate and methacrylate esters from Examples D1-D11 were fully recoverable with essentially no degradation after being stirred with concentrated aqueous ammonium hydroxide for a period of 2 days.

SMILES | onset temperature of decomposition [1] [°C] | temperature for 50% loss [1] [°C] | temperature for 90% loss [1] [°C] | Surf. Tens. (surface tension at the CMC) [3] [dynes/cm] | also measured
O=C(O)C(F)(F)C(F)(F)C(F)(F)C(F)(F)C(F)(F)C(F)(F)C(F)(F)F [FC-143, C7 F15 COO^- H4 N^+] | 173 | 188 | 202 | 21.5 | degradation over 1 year (in words) [2]: no signs of degradation
O=C(O)C(F)(F)C(F)(F)C(F)(F)C(F)(F)C(F)(F)C(F)(F)C(F)(F)C(F)(F)C(F)(F)F [C9 F19 COO^- NH4^+, CF3 (CF2)8 COO^- NH4^+, reference compound] | – | – | – | – | toxicity relative to the α-branched isomer (rats; LD50 comparison): ca. 10 times; acute toxicity (in words) (rats; one-time feeding, rats): moderately toxic; wasting syndrome (rats; one-time feeding, rats): Wasting syndrome was observed; toxicity (in words) [4]: moderately toxic
O=C(O)C(F)(C(F)(F)C(F)(F)F)C(F)(F)C(F)(F)C(F)(F)C(F)(F)C(F)(F)C(F)(F)F (centres unmarked) [Example M19, C6 F13 CF(C2 F5)COO^- H4 N^+] | 153 | 171 | 188 | – | –
O=C(F)C(F)(C(F)(F)F)C(F)(F)C(F)(F)C(F)(F)C(F)(F)C(F)(F)C(F)(F)C(F)(F)F (centres unmarked) [Example A1, C7 F15 CF(CF3)COF] | – | – | – | – | degradation products (in words) ([5]; aqueous mixture heated several hours at approximately 80° C.): The same volatile products were formed; olefin in degradation products ([5]; dispersed in deionized water, refluxed 2 hours, C6 F13 CF=CFCF3): 15%; monohydride in degradation products ([5]; dispersed in deionized water, refluxed 2 hours, C7 F15 CFHCF3): 85%; volatile degradation products collected ([5]; from 8 g, refluxed 2 hours in deionized water): 5.7 g
O=C(O)C1(F)C(F)(F)C(F)(F)C(F)(F)C(F)(F)C1(F)F [reference compound] | 100 | 110 | 120 | – | –
O=C(O)C(F)(C(F)(F)F)C(F)(F)C(F)(F)C(F)(F)C(F)(F)C(F)(F)C(F)(F)F (centres unmarked) [Example M16, C6 F13 CF(CF3)COO^- H4 N^+] | 165 | 179 | 193 | 17.9 | –
O=C(O)C(F)(C(F)(F)F)C(F)(F)C(F)(F)C(F)(F)C(F)(F)C(F)(F)F (centres unmarked) [Example M28, C5 F11 CF(CF3)COO^- Na^+] | – | – | – | – | onset temperature of decomposition ([1]; listed as N8): 236 °C; temperature for 50% loss ([1]; listed as N8): 250 °C; temperature for 90% loss ([1]; listed as N8): 263 °C
O=C(O)C(F)(C(F)(F)F)C(F)(F)C(F)(F)C(F)(F)C(F)(F)C(F)(F)F (centres unmarked) [Example M21, C5 F11 CF(CF3)COO^- K^+] | – | – | – | 22.5 | onset temperature of decomposition ([1]; listed as N9): 167 °C; temperature for 50% loss ([1]; listed as N9): 178 °C; temperature for 90% loss (stopped at 85% weight loss) ([1]; stopped at 85% weight loss as remaining salt, KF, is not volatile): 188 °C
O=C(O)C(F)(C(F)(F)F)C(F)(F)C(F)(F)C(F)(F)C(F)(F)C(F)(F)C(F)(F)C(F)(F)F (centres unmarked) [Example M1, C7 F15 CF(CF3)COOH] | – | – | – | – | degradation products (in words) ([5]; aqueous solution, carried out in a similar way): the same monohydride and olefin
O=C(O)C(F)(C(F)(F)F)C(F)(F)C(F)(F)C(F)(F)C(F)(F)C(F)(F)F (centres unmarked) [Example M15, C5 F11 CF(CF3)COO^- H4 N^+] | – | – | – | 22.1 | onset temperature of decomposition ([1]; listed as N2): 166 °C; temperature for 50% loss ([1]; listed as N2): 178 °C; temperature for 90% loss ([1]; listed as N2): 188 °C
O=C(O)C(F)(C(F)(F)F)C(F)(F)C(F)(F)C(F)(F)C(F)(F)C(F)(F)C(F)(F)C(F)(F)C(F)(F)C(F)(F)C(F)(F)F (centres unmarked) [Example M18, C10 F21 CF(CF3)COO^- H4 N^+] | 164 | 181 | 188 | 14.8 | –
O=C(O)C(F)(C(F)(F)F)C(F)(F)C(F)(F)C(F)(F)C(F)(F)C(F)(F)C(F)(F)C(F)(F)C(F)(F)F (centres unmarked) [Example M17, C8 F17 CF(CF3)COO^- H4 N^+] | 142 | 162 | 184 | 14.7 | –
C=CC(=O)OCCOC(=O)C(F)(F)C(F)(F)C(F)(F)C(F)(F)C(F)(F)C(F)(F)C(F)(F)F [C7 F15 COOCH2 CH2 OCOCH=CH2] | – | – | – | – | hydrolytic stability in concentrated aqueous ammonium hydroxide [6]: readily hydrolyzed
